Results published in ChEMBL document CHEMBL5036330, “Discovery of 8,9-seco-ent-Kaurane Diterpenoids as Potential Leads for the Treatment of Triple-Negative Breast Cancer” (J Med Chem, 2021).

Legend:
MDA-MB-231 = assay: Cytotoxicity against human MDA-MB-231 cells assessed as reduction in cell viability incubated for 96 hrs by MTT method; type: functional, cell-based; conditions: MDA-MB-231, 96 h
MDA-MB-468 = assay: Cytotoxicity against human MDA-MB-468 cells assessed as reduction in cell viability incubated for 96 hrs by MTT method; type: functional, cell-based; conditions: MDA-MB-468, 96 h
MCF7 = assay: Cytotoxicity against human MCF7 cells assessed as reduction in cell viability incubated for 96 hrs by MTT method; type: functional, cell-based; conditions: MCF7, 96 h
MCF-10A = assay: Cytotoxicity against human MCF-10A cells assessed as reduction in cell viability incubated for 96 hrs by MTT method; type: cell-based
L02 = assay: Cytotoxicity against human L02 cells assessed as reduction in cell viability incubated for 96 hrs by MTT method; type: cell-based; conditions: L02, 96 h
HEK293 = assay: Cytotoxicity against HEK-293 cells assessed as reduction in cell viability incubated for 96 hrs by MTT method; type: cell-based; conditions: Homo sapiens, HEK293, 96 h

SMILES	IC50 (MDA-MB-231) [nM]	IC50 (MDA-MB-468) [nM]	IC50 (MCF7) [nM]	IC50 (MCF-10A) [nM]	IC50 (L02) [nM]	IC50 (HEK293) [nM]
C=CC(=O)O[C@@H]1C[C@@H]2C(C)(C)CC[C@@H](O)[C@@]2(C)C(=O)CC[C@@H]2C=C1C(=O)C2=C	166	382	1220			
C=CC(=O)O[C@@H]1C[C@@H]2C(C)(C)CC[C@@H](OC(=O)C=C)[C@@]2(C)C(=O)CC[C@@H]2C=C1C(=O)C2=C	237	395	1120			
COc1cccc2c1C(=O)c1c(O)c3c(c(O)c1C2=O)C[C@@](O)(C(=O)CO)C[C@@H]3O[C@H]1C[C@H](N)[C@H](O)[C@H](C)O1 [DOXORUBICIN]	80.5	52.1		33	256	106
C=C1C(=O)C2=C[C@H]1CCC(=O)[C@]1(C)[C@H](O)CCC(C)(C)[C@H]1C[C@H]2OC(C)=O	561	257	587			
C=C1C(=O)C2=C[C@H]1CCC(=O)[C@]1(C)[C@H](O)CCC(C)(C)[C@H]1C[C@H]2OC(=O)CCl	551	909	1090			
C=C1C(=O)C2=C[C@H]1CCC(=O)[C@]1(C)[C@H](O)CCC(C)(C)[C@H]1C[C@H]2OC(=O)CC	983	893	999			
CC1(C)C(=O)CC[C@]2(C)[C@@H]1CC[C@]13C[C@H]4C[C@H](O[C@@]4(C)C1)[C@H]32	> 5000	> 5000	> 5000			
CC1(C)C(=O)CC[C@]2(C)[C@@H]1CC[C@@]13C[C@@H](CC[C@H]12)[C@@H](CO)C3	> 5000	> 5000	> 5000			
C=C1C(=O)C2=C[C@H]1CCC(=O)[C@@]1(C)[C@H](C[C@H]2OCC)C(C)(C)CC[C@H]1OC(C)=O	677	236	266			
C=C1C(=O)C2=C[C@H]1CCC(=O)[C@@]1(C)[C@H](C[C@H]2OC(=O)CCl)C(C)(C)CC[C@H]1OC(C)=O	1080	643	235			
C=C1C(=O)C2=C[C@H]1CCC(=O)[C@]1(C)C(=O)CCC(C)(C)[C@H]1C[C@H]2OC(C)=O	28.7	215	538			
CC1(C)C(=O)CC[C@]2(C)[C@@H]1CC[C@@]13C[C@@H](CC[C@H]12)[C@@](O)(CO)C3	> 5000	> 5000	> 5000			
C=C1C(=O)C2=C[C@H]1CCC(=O)[C@@]1(C)[C@H](C[C@H]2O)C(C)(C)CC[C@H]1OC(C)=O	177	228	120			
C=C1C(=O)C2=C[C@H]1CCC(=O)[C@@]1(C)[C@H](C[C@H]2OC(C)=O)C(C)(C)CC[C@H]1OC(C)=O	978	762	226			
C=C1C(=O)[C@@]23[C@H](O)C[C@@H]4C(C)(C)CC[C@@H](O)[C@@]4(C)[C@]2(O)CC[C@@H]1[C@H]3O	153	116	248			
C[C@H]1C(=O)[C@]23C[C@H]1CC[C@@]2(O)[C@]1(C)[C@H](O)CCC(C)(C)[C@H]1C[C@H]3O	> 5000	> 5000	> 5000			
C=C1C(=O)C2=C[C@H]1CCC(=O)[C@]1(C)C(=O)CCC(C)(C)[C@H]1C[C@H]2O	124	194	379			
C=C1C(=O)[C@]23O[C@H]2[C@H]1CCC(=O)[C@]1(C)[C@H](O)CCC(C)(C)[C@H]1C[C@H]3O	473	319	1600			
C=C1C(=O)O[C@H]2C3=C(CC[C@@H]12)[C@@]1(C)[C@H](CC3=O)C(C)(C)CC[C@H]1OC(C)=O	1770	842	1240			
C=C1C(=O)C2=C[C@H]1CCC(=O)[C@]1(C)C(=O)CCC(C)(C)[C@H]1C[C@H]2OC(=O)c1ccccc1	2000	2070	882			
C=C(C)CC(=O)O[C@@H]1C[C@@H]2C(C)(C)CC[C@@H](O)[C@@]2(C)C(=O)CC[C@@H]2C=C1C(=O)C2=C	564	890	1190			
C=C1C(=O)C2=C[C@H]1CCC(=O)[C@]1(C)C(=O)CCC(C)(C)[C@H]1C[C@H]2OC(=O)CCl	1610	345	505			
C=C1C(=O)C2=C[C@H]1CCC(=O)[C@]1(C)[C@H](O)CCC(C)(C)[C@H]1C[C@H]2OC	185	121	215			
C[C@H]1C(=O)C2=C[C@H]1CCC(=O)[C@]1(C)[C@H](O)CCC(C)(C)[C@H]1C[C@H]2O	> 5000	> 5000	> 5000			
C=C1C(=O)C2=C[C@H]1CCC(=O)[C@]1(C)[C@H](O)CCC(C)(C)[C@H]1C[C@H]2OC(=O)c1ccccc1	466	301	999			
